In brackets after ≈: the same amount, converted by molar mass. Where a name gives a salt, the structure may show the parent alone.
How the values were obtained:
[1] = test system: Trichophyton rubrum; assay: Liquid broth assay (MIC); type: cell-based; conditions: for antifungal activity ranking: liquid broth assay, rank 1 = most active, same ranking for both dermatophytes; for MIC: Trichophyton rubrum, 672 h, liquid (broth) culture, incubated up to 4 weeks, one value without distinguishing the two dermatophytes, read-out: minimal inhibitory concentration (MIC)
Protocol: (§1) The minimum inhibitory concentration (MIC) of various test agents were tested in a standard protocol against two dermatophytes: Trichophyton rubrum and Trichophyton mentagrophyles:
(§2) Trichophyton rubrum and Trichophyton mentagrophytes were grown on potato dextrose agar (PDA) at 30° C. for 1-5 weeks. One clone was picked randomly and grown in sabouraud dextrose broth (SDB) to a density of 1×10^6 colony forming units (cfu) per ml. Various concentrations of test agents were added to the dermatophyte cultures and incubated for up to 4 weeks. Each week, an aliquot of the liquid culture was taken and placed on a PDA plate, and incubated for up to 3 weeks to assess growth. The plates were examined and photographed each week. Cultures were considered positive when more than 2 colonies were found per plate.

[2] = test system: Trichophyton mentagrophytes; assay: Liquid broth assay (MIC); type: cell-based; conditions: for antifungal activity ranking: liquid broth assay, rank 1 = most active, same ranking for both dermatophytes; for MIC: Trichophyton mentagrophytes, 672 h, liquid (broth) culture, incubated up to 4 weeks, one value without distinguishing the two dermatophytes, read-out: minimal inhibitory concentration (MIC)
Protocol: as §1, §2

| SMILES | antifungal activity ranking [1] | antifungal activity ranking [2] | MIC [1] [µg/mL] | MIC [2] [µg/mL] |
| --- | --- | --- | --- | --- |
| Clc1ccc(C(Cn2ccnc2)OCc2ccsc2Cl)c(Cl)c1 (stereo not drawn) [tioconazole] | 2 | 2 |  |  |
| CCCCc1ccc(C(=O)O)nc1 [Fusaric acid, fusaric Acid] | 6 | 6 | 500 (≈ 2790 µM) | 500 (≈ 2790 µM) |
| CCCCCCCCCC(=O)OCC(O)CO (racemic) [1-monocaprin, 1-decanoyl-rac-glycerol] | 5 | 5 | 250 (≈ 1010 µM) | 250 (≈ 1010 µM) |
| Cc1cc(C2CCCCC2)n(O)c(=O)c1 [ciclopirox] | 4 | 4 | 31.3 (≈ 151 µM) | 31.3 (≈ 151 µM) |
| CC(=O)N1CCN(c2ccc(OCC3COC(Cn4ccnc4)(c4ccc(Cl)cc4Cl)O3)cc2)CC1 (stereo not drawn) [ketoconazole] | 3 | 3 |  |  |
| Clc1ccc(COC(Cn2ccnc2)c2ccc(Cl)cc2Cl)cc1 (stereo not drawn) [econazole, econazole Nitrate] | 1 | 1 | < 3.9 | < 3.9 |
| CN(C/C=C/C#CC(C)(C)C)Cc1cccc2ccccc12 [Terbinafine, terbinafine HCl] | 1 | 1 | < 3.9 | < 3.9 |
